Measurements: patent US6858624B2, “Aryl fused azapolycyclic compounds” (Pfizer, Inc., priority 2001, dated 2005)

How the values were obtained:
[1] = biotransformation in liver microsomes; assay type: in vitro ADME; details: bicarbonate buffer, CO2 atmosphere, UDPGA
Description: A number of studies have been conducted on precursor compounds to those of formula I of the present invention. In particular, studies have been carried out on 5,8,14-triazatetracyclo[10.3.1.0^2,110.0^4,9]-hexadeca-2(11),3,5,7,9-pentaene: [drawing 12] Means of the synthesis of this compound may be found International Patent Publication No. WO 99/35131 and WO 01/62736.

[2] = in vivo metabolism study, preclinical species
Description: (§1) The compound 5,8,14-triazatetracyclo[10.3.1.0^2,110.0^4,9]-hexadeca-2(11),3,5,7,9-pentaene has also been studied in vivo (rat, monkey, mouse, and human). Metabolite structures are described in Scheme I below.
(§2) The N-carbamoyl glucuronide represents an unusual, albeit not unprecedented metabolite that arises via association of carbon dioxide with the secondary amine followed by glucuronidation. […] The only excreted metabolites in human were the hydroxyquinoxaline metabolite (2.9% of dose): [drawing 17] and N-carbamoyl glucuronide (3.6% of dose).

[3] = in vivo metabolism study, human (circulating and excreted metabolites)
Description: as §1, §2

With `c1cnc2cc3c(cc2n1)C1CNCC3C1` [5,8,14-triazatetracyclo[10.3.1.0^2,110.0^4,9]-hexadeca-2(11),3,5,7,9-pentaene] the “biotransformation in liver microsomes” value [1] was “underwent N-carbamoyl glucuronidation”.
For `O=C(O)C1OC(OC(=O)N2CC3CC(C2)c2cc4nccnc4cc23)C(O)C(O)C1O` (stereo not drawn) [N-carbamoyl glucuronide], the “metabolite present in rat and monkey” value [2] was “present in rat and monkey”, the “metabolites in human circulation” value [3] was “Metabolites in human circulation included” and the “excreted metabolite in human” value ([3]; after 5,8,14-triazatetracyclo[10.3.1.0^2,110.0^4,9]-hexadeca-2(11),3,5,7,9-pentaene) was 3.6 % of dose.
With `O=CN1CC2CC(C1)c1cc3nccnc3cc12` [N-formyl] the “metabolites in human circulation” value [3] was “Metabolites in human circulation included”.
In the case of `Oc1cnc2cc3c(cc2n1)C1CNCC3C1` (stereo not drawn) [hydroxyquinoxaline metabolite], the “excreted metabolite in human” value ([3]; in vivo) is reported as 2.9 % of dose.
